From patent publication US6831079B1, “Vasopressin agonist formulation and process” (American Cyanamid Company, priority 1999, dated 2004)

Tests used:
Vasopressin V2 [1] = molecular target: T1, Vasopressin V2 (Rattus norvegicus, UniProt Q00788); experiment: Vasopressin V2 agonist effects in normal conscious homozygous Brattleboro rats with central diabetes insipidus; type: in vivo; design: from tissue; host or cells: whole living homozygous Brattleboro rat; the receptor is the animal's own; settings: Brattleboro (BB) rats, 10 mg/kg oral; for Osmolality (% Increase): change in osmolality as percent of control; for Urine Volume (% decrease): vs. control, urine collected six hours
Excerpt: Vasopressin V2 Agonist Effects of Test Compounds in Normal Conscious Homozygous Brattleboro Rats with Central Diabetes Insipidus
Male or female homozygous Brattleboro rats (Harlan Sprague Dawley, Inc., Indianapolis, Ind.) of 250-350 g body weight were supplied with standard rodent diet (Purina Rodent Lab. Chow 5001) and water ad libitum. On the day of test, rats were placed individually into metabolic cages equipped with devices to separate the feces from the urine and containers for collection of urine. Test compound or reference agent was given at an oral dose of 1 to 10 mg/kg in a volume of 10 ml/kg. The vehicle used was 20% dimethylsulfoxide (DMSO) in 2.5% preboiled corn starch. During the test, rats were provided with water ad libitum. Urine was collected for six hours after dosing of the test compound. At the end of six hours, urine volume was measured. Urinary osmolality was determined using a Fiske One-Ten Osmometer (Fiske Associates, Norwood, Mass., 02062) or an Advanced CRYOMATIC Osmometer, Model 3C2 (Advanced Instruments, Norwood, Mass.). Determinations of Na^+, K^+ and Cl^− ion were carried out using ion specific electrodes in a Beckman SYNCHRON EL-ISE Electrolyte System analyzer. This animal model was mainly used for evaluation of potency and duration of action of the active compounds.

Vasopressin V2 [2] = molecular target: T1, Vasopressin V2; experiment: Vasopressin V2 agonist effects in normal conscious water-loaded rats; type: in vivo; design: from tissue; host or cells: whole living Sprague-Dawley rat; the receptor is the animal's own (renal, by own knowledge); settings: Sprague-Dawley (CD) rats, 10 mg/kg oral; for Osmolality (% Increase): change in osmolality as percent of control; for Urine Volume (% decrease): vs. control, urine collected four hours
Excerpt: Vasopressin V2 Agonist Effects of Test Compounds in Normal Conscious Water-loaded Rats
Male or female normotensive Sprague-Dawley rats (Charles River Laboratories, Inc., Kingston, N.Y.) of 350-500 g body weight were supplied with standard rodent diet (Purina Rodent Lab. Chow 5001) and water ad libitum. On the day of test, rats were placed individually into metabolic cages equipped with devices to separate the feces from the urine and containers for collection of urine. […] The vehicle used was 20% dimethylsulfoxide (DMSO) in 2.5% preboiled corn starch. Thirty minutes after dosing the test compound, rats were gavaged with water at 30 ml/kg into the stomach using a feeding needle. During the test, rats were not provided with water or food. Urine was collected for four hours after dosing of the test compound. At the end of four hours, urine volume was measured. Urinary osmolality was determined using a Fiske One-Ten Osmometer (Fiske Associates, Norwood, Mass., 02062) or an Advanced CRYOMATIC Osmometer, Model 3C.2 (Advanced Instruments, Norwood, Mass.). Determinations of Na^+, K^+ and Cl^− ion were carried out using ion specific electrodes in a Beckman SYNCHRON EL-ISE Electrolyte System analyzer. The urinary osmolality should increase proportionally. In the screening test, two rats were used for each compound. If the difference in the urine volume of the two rats was greater than 50%, a third rat was used.

T1 sequence (Q00788 whole entry): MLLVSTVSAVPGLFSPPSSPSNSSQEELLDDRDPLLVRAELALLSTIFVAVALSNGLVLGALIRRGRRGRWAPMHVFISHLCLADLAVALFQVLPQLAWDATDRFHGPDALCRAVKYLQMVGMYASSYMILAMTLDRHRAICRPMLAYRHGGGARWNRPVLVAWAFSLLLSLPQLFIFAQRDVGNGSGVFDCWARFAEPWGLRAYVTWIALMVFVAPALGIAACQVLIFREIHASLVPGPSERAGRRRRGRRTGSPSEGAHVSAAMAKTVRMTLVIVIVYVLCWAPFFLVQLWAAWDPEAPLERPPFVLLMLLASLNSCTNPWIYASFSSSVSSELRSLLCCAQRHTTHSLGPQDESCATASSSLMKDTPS

CC(=O)n1ccc(-c2ccc(C(=O)N3Cc4cccn4Cc4ccccc43)cc2)n1 [Example 30, 1-{3-[4-(5H,11H-Pyrrolo[2,1-c][1,4]benzodiazepine-10-carbonyl)-phenyl]-pyrazol-1-yl}-ethanone]
Osmolality (% Increase) (Vasopressin V2 [1]): 334%
Urine Volume (% decrease) (Vasopressin V2 [1]): 81%

O=C(c1ccc(-c2ccn(C(=O)c3cccs3)n2)cc1)N1Cc2cccn2Cc2ccccc21 [Example 34, (5H,11-Pyrrolo[2,1-c][1,4]benzodiazepin-10-yl)-{4-[1-(thiophene-2-carbonyl)-1H-pyrazoly-3-yl]phenyl}-methanone]
Osmolality (% Increase) (Vasopressin V2 [1]): 407%
Urine Volume (% decrease) (Vasopressin V2 [1]): 76%

Cc1ccccc1C(=O)n1ccc(-c2ccc(C(=O)N3Cc4cccn4Cc4ccccc43)cc2)n1 [Example 36, {4-[1-(2-Methyl-benzoyl)-1H-pyrazol-3-yl]-phenyl}-(5H,11H-pyrrolo[2,1-c][1,4]benzodiazepin-10-yl)-methanone]
melting point: 170 to 173 °C
Osmolality (% Increase) (Vasopressin V2 [1]): 164%
Urine Volume (% decrease) (Vasopressin V2 [1]): 66%

O=C(c1ccc(-c2ccn(C(=O)c3ccc(Cl)cc3Cl)n2)cc1)N1Cc2cccn2Cc2ccccc21 [Example 38, {4-[1-(2,4-Dichloro-benzoyl)-1H-pyrazol-3-yl]-phenyl}-(5H,11H-pyrrolo[2,1-c][1,4]benzodiazepin-10-yl)-methanone]
melting point: 180 to 182 °C
Osmolality (% Increase) (Vasopressin V2 [1]): 256%
Urine Volume (% decrease) (Vasopressin V2 [1]): 66%

Cn1cc(-c2ccc(C(=O)N3Cc4cccn4Cc4ccccc43)cc2)cn1 [Example 55, [4-(1-Methyl-1H-pyrazol-4-yl)-phenyl]-(5H,11H-pyrrolo[2,1-c][1,4]-benzodiazepin-10-yl)-methanone]
melting point: 200 to 201 °C
Osmolality (% Increase) (Vasopressin V2 [2]): 164%
Urine Volume (% decrease) (Vasopressin V2 [2]): 80%

Cn1cc(-c2ccc(C(=O)N3Cc4cccn4Cc4ccccc43)cn2)cn1 [Example 57, [6-(1-Methyl-1H-pyrazol-4-yl)-pyridin-3-yl]-(5H,11H-pyrrolo[2,1-c][1,4]-benzodiazepin-10-yl)-methanone]
melting point: 173 to 175 °C
Osmolality (% Increase) (Vasopressin V2 [2]): 288%
Urine Volume (% decrease) (Vasopressin V2 [2]): 77%

Cc1cnn(-c2ccc(C(=O)N3Cc4cccn4Cc4ccccc43)cc2)c1 [Example 60, [4-(4-Methyl-pyrazol-1-yl)-phenyl]-(5H,11H-pyrrolo[2,1-c][1,4]-benzodiazepin-10-yl)-methanone]
melting point: 179 to 181 °C
Osmolality (% Increase) (Vasopressin V2 [2]): 165%
Urine Volume (% decrease) (Vasopressin V2 [2]): 54%

O=C(c1ccc(-n2ccc(C(F)(F)F)n2)cc1)N1Cc2cccn2Cc2ccccc21 [Example 62, (5H,11H-Pyrrolo[2,1-c][1,4]benzodiazepin-10-yl)-[4-(3-trifluoromethyl-pyrazol-1-yl)-phenyl]-methanone]
melting point: 166 to 167 °C
Osmolality (% Increase) (Vasopressin V2 [2]): 150%
Urine Volume (% decrease) (Vasopressin V2 [2]): 22%

Cc1cn(-c2ccc(C(=O)N3Cc4cccn4Cc4ccccc43)cc2)cn1 [Example 64, [4-(4-Methyl-imidazol-1-yl)-phenyl]-(5H,11H-pyrrolo[2,1-c][1,4]-benzodiazepin-10-yl)-methanone]
melting point: 140 to 145 °C
Osmolality (% Increase) (Vasopressin V2 [2]): 349%
Urine Volume (% decrease) (Vasopressin V2 [2]): 79%

Cn1ccc(-c2ccc(C(=O)N3Cc4cccn4Cc4ccccc43)c(Cl)c2)n1 [Example 71, [2-Chloro-4-(1-methyl-1H-pyrazol-3-yl)-phenyl]-(5H,11H-pyrrolo[2,1-c]-[1,4]benzodiazepine-10-yl)-methanone]
melting point: 148.5 to 150 °C
Osmolality (% Increase) (Vasopressin V2 [2]): 264%
Urine Volume (% decrease) (Vasopressin V2 [2]): 84%

O=C(O)c1ccc(C(=O)N2Cc3cccn3Cc3ccccc32)c(Cl)c1 [Example 78, 3-Chloro-4-(5H,11H-Pyrrolo[2,1-c][1,4]benzodiazepine-10-carbonyl)-benzoic Acid]
melting point: 198 to 199 °C
Osmolality (% Increase) (Vasopressin V2 [2]): 115%
Urine Volume (% decrease) (Vasopressin V2 [2]): 21%

NC(=O)c1ccc(C(=O)N2Cc3cccn3Cc3ccccc32)c(Cl)c1 [Example 79, 3-Chloro-4-(5H,11H-pyrrolo[2,1-c][1,4]benzodiazepine-10-carbonyl)-benzamide]
melting point: 211 to 212 °C
Osmolality (% Increase) (Vasopressin V2 [2]): 123%
Urine Volume (% decrease) (Vasopressin V2 [2]): 38%

O=C(c1ccc(-c2ncn[nH]2)cc1Cl)N1Cc2cccn2Cc2ccccc21 [Example 83, [2-Chloro-4-(2H-1,2,4-triazol-3-yl)-phenyl]-(5H,11H-pyrrolo[2,1-c][1,4]-benzodiazepin-10-yl)-methanone]
melting point: 174 to 177 °C
Osmolality (% Increase) (Vasopressin V2 [2]): 442%
Urine Volume (% decrease) (Vasopressin V2 [2]): 85%

O=C(c1ccc(-c2nnn[nH]2)cc1Cl)N1Cc2cccn2Cc2ccccc21 [Example 86, [2-Chloro-4-(1H-tetrazol-5-yl)-phenyl]-(5H,11H-pyrrolo[2,1-c][1,4]benzodiazepin-10-yl)-methanone]
melting point: 218 to 220 °C
Osmolality (% Increase) (Vasopressin V2 [2]): 86%
Urine Volume (% decrease) (Vasopressin V2 [2]): 5%

Cc1ccn(-c2ccc(C(=O)N3Cc4ccc(CN(C)C)n4Cc4ccccc43)c(Cl)c2)n1 [Example 87, [2-Chloro-4-(3-methyl-pyrazol-1-yl)-phenyl]-(3-dimethylaminomethyl-5H,11H-pyrrolo[2,1-c][1,4]benzodiazepin-10-yl)-methanone]
melting point: 100 to 102 °C
Osmolality (% Increase) (Vasopressin V2 [2]): 214%
Urine Volume (% decrease) (Vasopressin V2 [2]): 71%

Cc1ccn(-c2ccc(C(=O)N3Cc4ccc(Br)n4Cc4ccccc43)c(Cl)c2)n1 [Example 88, (3-Bromo-5H,11H-pyrrolo[2,1-c][1,4]benzodiazepin-10-yl)-[2-chloro-4-(3-methyl-pyrazol-1-yl)-phenyl]-methanone]
melting point: 148 to 149 °C (dec.)
Osmolality (% Increase) (Vasopressin V2 [2]): 226%
Urine Volume (% decrease) (Vasopressin V2 [2]): 68%

Cc1ccn(-c2ccc(C(=O)N3Cc4cccn4Cc4ccccc43)c(F)c2)n1 [Example 92, [2-Fluoro-4-(3-methyl-pyrazol-1-yl)-phenyl]-(5H,11H-pyrrolo[2,1-c][1,4]-benzodiazepin-10-yl)-methanone]
melting point: 192 to 193 °C
Osmolality (% Increase) (Vasopressin V2 [2]): 454%
Urine Volume (% decrease) (Vasopressin V2 [2]): 69%

Cc1ccn(-c2ccc(C(=O)O)c(Cl)c2)n1 [Example 97, 2-Chloro-4-(3-methyl-1H-pyrazol-1-yl)-benzoic Acid]
melting point: 192 to 193 °C
Osmolality (% Increase) (Vasopressin V2 [2]): 106%
Urine Volume (% decrease) (Vasopressin V2 [2]): 3%

O=C(c1ccc(-n2cccn2)nc1Cl)N1Cc2cccn2Cc2ccccc21 [Example 99, (2-Chloro-6-pyrazol-1-yl-pyridin-3-yl)-(5H,11H-pyrrolo[2,1-c][1,4]benzodiazepin-10-yl)-methanone]
melting point: 133 to 135 °C
Osmolality (% Increase) (Vasopressin V2 [2]): 205%
Urine Volume (% decrease) (Vasopressin V2 [2]): 43%

Cc1ccn(-c2ccc(C(=O)N3Cc4cccn4Cc4ccccc43)c(Cl)n2)n1 [Example 100, [2-Chloro-6-(3-methylpyrazol-1-yl)-pyridin-3-yl]-(5H,11H-pyrrolo[2,1-c][1,4]benzodiazepin-10-yl)-methanone]
melting point: 171 to 172 °C
Osmolality (% Increase) (Vasopressin V2 [2]): 248%
Urine Volume (% decrease) (Vasopressin V2 [2]): 24%

Cc1cnn(-c2ccc(C(=O)N3Cc4cccn4Cc4ccccc43)c(Cl)n2)c1 [Example 101, [2-Chloro-6-(4-methylpyrazol-1-yl)-pyridin-3-yl](5H,11H-pyrrolo[2,1-c][1,4]benzodiazepin-10-yl)-methanone]
melting point: 155 to 156 °C
Osmolality (% Increase) (Vasopressin V2 [2]): 376%
Urine Volume (% decrease) (Vasopressin V2 [2]): 76%

CC(=O)c1ccc(C(=O)N2Cc3cccn3Cc3ccccc32)c(Cl)c1 [Example 121, 1-[4-(5H,11H-pyrrolo[2,1-c][1,4]benzodiazepine-10-carbonyl)-3-chlorophenyl]-ethanone]
melting point: 98 to 100 °C
Osmolality (% Increase) (Vasopressin V2 [2]): 155%
Urine Volume (% decrease) (Vasopressin V2 [2]): 22%
